Measured values from patent US20080085882A1, “Compositions and Methods for Potentiation of Cancer Agents” (priority 2006, published 2008).
Entries after “also recorded” stand apart in the source; their conditions may differ.

What was measured:
[1] = test system: checkpoint activation (DNA-damage-induced interaction between two selected checkpoint proteins); assay: two-hybrid assay-based yeast screen for agents that modify cell cycle checkpoint activation; conditions: in response to the topoisomerase I inhibitor camptothecin
Experimental: A two-hybrid assay-based yeast system was used to screen small-molecule compound libraries for agents that modify cell cycle checkpoint activation. Checkpoint activation is measured as the DNA-damaged-induced increased interaction between two selected checkpoint proteins.

wild-type yeast = assay: sensitivity towards DNA damaging agents, survival of macrocolony forming cells, wild type; format: cell-based; set-up: key: +: increased resistance; −: decreased resistance; conditions: strain WT
Experimental: (§1) As another example, the drug streptonigrin was used as a double-strand break inducing drug. After treatment of logarithmically growing yeast cultures for 1 h at 30° C. in YPD medium (1% yeast extract, 2% peptone, 2% dextrose), lethality was measured by inability of colony formation on YPD agar plates. […] The used concentration of 50-100 μg/ml results in 80% survival after 1 h incubation.
(§2) In summary, the incubation of logarithmic phase cells of wild-type yeast and a double-strand break repair deficient derivative (rad51) (Amberg, D. C., D. J. Burke, and J. N. Strathern. 2005. Methods in Yeast Genetics: A Cold Spring Harbor Laboratory Course Manual, 2005 Edition. Cold Spring Harbor Laboratory Press, Cold Spring Harbor, N.Y.) with compound NSC109268 had the following effects on sensitivity towards DNA damaging agents, measured as survival of macrocolony forming cells (+increased resistance, −decreased resistance, ND not determined): Table 1 summarizes the effects of NSC109268 on senstivity towards DNA Damaging Agents in repair-proficient wild type and rad 51^− cells.

[2] = test system: double-strand break repair deficient derivative (rad51) yeast; assay: sensitivity towards DNA damaging agents, survival of macrocolony forming cells, rad51; format: cell-based; set-up: key: +: increased resistance; −: decreased resistance; conditions: strain rad51
Experimental: as §1, §2

yeast cultures [3] = assay: lethality of logarithmically growing yeast cultures, colony formation on YPD agar; format: cell-based
Experimental: as §1
Curiously, the opposite effect was found for other agents such hydrogen peroxide (H2O2), an oxidative agent causing base damage and strand breaks.

WT strain BY4741 = assay: cisplatin/NSC combination treatments, fraction of colony forming cells; format: cell-based, yeast; conditions: 2 hours at 30° C. in water
Experimental: This enhancement of cisplatin sensitivity by NSC109268 was quantified. We also tested the chemically related compound NSC 109272. Cells of a logarithmic-phase culture of WT strain BY4741 were incubated for 2 hours at 30° C. in water containing the combinations of NSC109268 or NSC109272 and cisplatin shown in Table 2. The fraction of colony forming cells was determined on solid YPD medium.

[4] = test system: PC3 prostate adenocarcinoma cells; assay: MTS cell survival, cisplatin plus NSC109268; format: cell-based, human
Experimental: (§3) Based on the cisplatin result in yeast, the inventors explored if a similar effect can be detected in human cells. […] Survival was determined in the presence or absence of compound NSC109268 using Cell Titer 96 Aqueous Cell Proliferation Assay kit from Promega, Madison, Wis. All cultures, unless specified otherwise, were maintained in growth medium composed of RPMI with 2 mM L-glutamine, 100 units/ml of Penicillin, and 100 μg/ml Streptomycin, supplemented with 10% fetal bovine serum under a humidified atmosphere of 95% air, 5% CO2 at 37° C. Briefly, cells were plated in 96-well tissue culture plates at 5-8×10^3 cells/well and allowed to attach overnight in growth medium. The following day, cells were rinsed twice in DMEM and further incubated in serum-free medium for 24 h. Cells were then treated with cisplatin [0-100 μM] in the presence of NSC109268 [0, 1, 2, 3 μM] for 48 h. Dose-response studies were initially done to determine appropriate dosages for the drugs and their vehicles. Negative controls involved the use of DMF, vehicle for cisplatin (˜0 μM) or DMSO, vehicle for NSC109268 (˜0 μM). […] MTS is taken up by live cells where it is reduced by the dehydrogenase enzymes and released back into the culture medium as a yellow formazan product. The amount of formazan product measured in terms of absorbances is directly proportional to the number of live cells in the cultures. Thus, absorbance readings at 490 nm were taken after 1 h and converted to cell numbers based on standard curves. Standard curves were done using cells maintained in RPMI in 96-well plates at the same time. Experiments were done in triplicate wells at least 4 times. Statistical analyses were done using ANOVA. […] Several series of studies were conducted using DMF (solvent control=0) and various concentrations of cisplatin in combination with (DMSO (solvent control=0), 1 μM NSC1092682 μM NSC109268, and 3 μM NSC109268. Survival was plotted in a logarithmic scale against cisplatin dose, with different symbols indicating the amount of added NSC109268 (see FIG. 1A insert), for the RWPE-1 normal prostate cell line (FIG. 1A), PC3 prostate cancer cells (FIG. 1B), cisplatin-sensitive ovarian cancer cells (2008) (FIG. 1C) and cisplatin-resistant ovarian cancer cells (2008/IC3) (FIG. 1D).

[5] = test system: cisplatin resistant ovarian cancer cells (2008/IC3); assay: MTS cell survival, cisplatin plus NSC109268; format: cell-based, human
Experimental: as §3

[6] = test system: cisplatin sensitive ovarian cancer cells (2008); assay: MTS cell survival, cisplatin plus NSC109268; format: cell-based, human; conditions: cisplatin 0-100 μM, NSC109268 0-3 μM, 48 h
Experimental: Based on the cisplatin result in yeast, the inventors explored if a similar effect can be detected in human cells. […] Survival was determined in the presence or absence of compound NSC109268 using Cell Titer 96 Aqueous Cell Proliferation Assay kit from Promega, Madison, Wis. All cultures, unless specified otherwise, were maintained in growth medium composed of RPMI with 2 mM L-glutamine, 100 units/ml of Penicillin, and 100 μg/ml Streptomycin, supplemented with 10% fetal bovine serum under a humidified atmosphere of 95% air, 5% CO2 at 37° C.
Briefly, cells were plated in 96-well tissue culture plates at 5-8×10^3 cells/well and allowed to attach overnight in growth medium. The following day, cells were rinsed twice in DMEM and further incubated in serum-free medium for 24 h. Cells were then treated with cisplatin [0-100 μM] in the presence of NSC109268 [0, 1, 2, 3 μM] for 48 h. […]
To determine the number of surviving cells, cells were incubated in 333 μg/ml MTS [3-(4,5-dimethylthiazol-2-yl)-5-(3-carboxymethoxyphenyl)-2-(4-sulfophenyl)-2H-tetrazolium], a tetrazolium salt, and 25 μM phenazine methosulfate (PMS), an electron coupling reagent. […] The amount of formazan product measured in terms of absorbances is directly proportional to the number of live cells in the cultures. Thus, absorbance readings at 490 nm were taken after 1 h and converted to cell numbers based on standard curves. […]

yeast cultures [7] = assay: lethality of logarithmically growing yeast cultures, colony formation on YPD agar; format: cell-based; remark: listed apart in the source
[8] = cisplatin 0-100 μM, NSC109268 0-3 μM, 48 h
[9] = compared to cisplatin-sensitive cells (2008)

“Copper, di-μ-chlorobis[1-[(1-piperidinyl-κN)methyl]-2-naphthalenolato-κO]di-(9CI) [NSC109268]” was tested, and the “effect on checkpoint activation” value [1] was “interfere with checkpoint activation”, the “effect on sensitivity towards DNA damaging agent” value (wild-type yeast; Cisplatin) was “−” and the “effect on sensitivity towards DNA damaging agent” value (wild-type yeast; MNNG) was “+”. The “effect on sensitivity towards DNA damaging agent” value (wild-type yeast; Streptonigrin) was “+”, the “effect on sensitivity towards DNA damaging agent” value ([2]; Cisplatin) was “−” and the “effect on sensitivity towards DNA damaging agent” value ([2]; Ionizing radiation (137Cs)) was “+”. The “effect on sensitivity towards DNA damaging agent” value ([2]; Phleomycin) was “+”, the survival (yeast cultures [3]; compound itself, 50-100 μg/ml, 1 h incubation) was 80% and the “effect on sensitivity to DNA damaging agent” value (“effect … to DNA damaging agent” below) (yeast cultures [3]; hydrogen peroxide (H2O2), simultaneous exposure) was “sensitivity is enhanced”. The “effect on lethality of DNA damaging agent” value (yeast cultures [3]; streptonigrin, 1 h at 30° C. in YPD medium) was “protective effect”, the “toxicity of the compound itself” value (yeast cultures [3]; yeast, 1 h at 30° C. in YPD medium) was “moderate toxicity” and the “cell survival (fraction of colony forming cells)” value (WT strain BY4741; NSC109268 7.4 nM + 33 μM Cisplatin) was 29%. The “cell survival (fraction of colony forming cells)” value (WT strain BY4741; NSC109268 7.4 nM + 82.5 μM Cisplatin) was 25.5%, the “cell survival (fraction of colony forming cells)” value (WT strain BY4741; NSC109268 7.4 nM + 165 μM Cisplatin) was 0.09% and the “cell survival (fraction of colony forming cells)” value (WT strain BY4741; NSC109268 7.4 nM, 0 μM Cisplatin) was 79.5%. For the same molecule, the “cell survival (fraction of colony forming cells)” value (WT strain BY4741; NSC109268 37 nM + 165 μM Cisplatin) was less than 0.4%, the “cell survival (fraction of colony forming cells)” value (WT strain BY4741; NSC109268 37 nM, 0 μM Cisplatin) was 10% and the “effect of combination with cisplatin on survival” value (from here on “effect of combination”) [4, 8] was “synergistically enhanced; also recorded: increases cellular sensitivity to cisplatin”. For the same molecule, the “toxicity of NSC109268 alone” value ([4]; range of concentrations that increases sensitivity to cisplatin) was “(virtually) non-toxic”, the survival ([5]; 2 μM NSC109268 without any cisplatin, 48 h) was 38% and the measured survival ([5]; 5 μM cisplatin/2 μM combination treatment, 48 h) was 4.5%. For the same molecule, the “survival expected if the effects were independent” value ([5]; 5 μM cisplatin/2 μM combination treatment, 85% of 38%) was 32%, the “effect of combination” value [5, 8] was “synergistically enhanced” and the “enhancement effect on cisplatin” value [5, 9] was “much more pronounced”. For the same molecule, the “toxicity without added cisplatin” value [5, 9] was “much more toxic”, the “effect of combination” value [6] was “synergistically enhanced” and the “effect … to DNA damaging agent” value (yeast cultures [7]; alkylating agent (MMS)) was “does not seem to affect sensitivity”. For the same molecule, the “effect on lethality of DNA damaging agent” value (yeast cultures [7]; ionizing radiation (137Cs γ-radiation)) was “less significantly”, the “effect … to DNA damaging agent” value (yeast cultures [7]; phleomycin) was “does not seem to affect sensitivity” and the “effect … to DNA damaging agent” value (yeast cultures [7]; ultraviolet radiation (UV-C)) was “does not seem to affect sensitivity”.

With `N.N.[Cl][Pt][Cl]` [Cisplatin, cis-Diammineplatinum (II) dichloride, reference compound] the “cell survival (fraction of colony forming cells)” value (WT strain BY4741; 33 μM Cisplatin alone) was 71%, the “cell survival (fraction of colony forming cells)” value (WT strain BY4741; 82.5 μM Cisplatin alone) was 44.5% and the “cell survival (fraction of colony forming cells)” value (WT strain BY4741; 165 μM Cisplatin alone) was 21%. It also gave a survival ([5]; 5 μM of cisplatin without any added NSC109268, 48 h) of 85%.

With “Copper, di-μ-chlorobis[1-[(4-morpholinyl-κN4)methyl]-2-naphthalenolato-κO]di-(9CI) [NSC109272]” the “cell survival (fraction of colony forming cells)” value (WT strain BY4741; NSC109272 1.5 nM + 165 μM Cisplatin) was 4% and the “cell survival (fraction of colony forming cells)” value (WT strain BY4741; NSC109272 1.5 nM, 0 μM Cisplatin) was 70%.
